# Measured values: patent US20170172994A1, “COMPOSITIONS AND METHODS FOR TREATING BACTERIAL INFECTIONS” (WOCKHARDT LIMITED, priority 2013, published 2017)
# Columns and labels:
# K. pneumoniae B88 [1] = assay: MIC determination; type: cell-based; conditions: Klebsiella pneumoniae; K. pneumoniae B88 (NDM, SHV, TEM)
# Description: (§1) In a typical procedure for determining MIC values, overnight grown bacterial cultures were diluted appropriately and inoculated on the agar media containing doubling concentrations of the test compounds. Observation for growth or no growth was performed after 16-20 hours of incubation at 35±2° C. in ambient air. The overall procedure was performed as per Clinical and Laboratory Standards Institute (CLSI) recommendations (Clinical and Laboratory Standards Institute (CLSI), Performance Standards for Antimicrobial Susceptibility Testing, 20th Informational Supplement, M 100-S20, Volume 30, No. 1, 2010).
# P. mirabilis G 186 [2] = assay: MIC determination; type: cell-based; conditions: Proteus mirabilis, G186; P. mirabilis G 186 (NDM, TEM)
# Description: as §1
# Pseudomonas PBP 3 = biological target: T1, Pseudomonas PBP 3 (Pseudomonas aeruginosa, UniProt G3XD46); assay: biochemical; type: binding
# T1 construct: endogenous in cells
# Description: The phrase “selective and high affinity PBP binder” refers to a PBP binder which binds to only one PBP with very high affinity. In general, the term “selective and high affinity PBP binder” also includes those binders where a substantial fraction of binder selectively binds to only one PBP with high affinity.
# The reaction mixtures were then denatured with 20 μl each of SDS-denaturing solution at 100° C. for 3 min PBPs were separated through 10% SDS polyacrylamide gel electrophoresis (Bio-Rad Laboratories, Hercules, Calif.). The protein gels were rinsed in water immediately after electrophoresis.
# K. pneumoniae B88 [3] = assay: Minimum filamentation / spheroplasting concentration; conditions: Klebsiella pneumoniae, B88
# Description: (§6) The term “MSC” as used herein refers to minimum spheroplasting concentration, which is the minimum concentration of an antibacterial agent at which about 80% of bacterial cells covert into spheroplasts.
# (§7) The term “MFC” as used herein refers to minimum filamentation concentration, which is the minimum concentration of an antibacterial agent at which about 80% of bacterial cells get elongated to form filament like structures.
# [4] = system: Acinetobacter baumannii NCTC 13304 producing carbapenem hydrolyzing Class D OXA enzyme (OXA 27); assay: Time kill study (viability count); type: cell-based; conditions: Cefepime 8 μg/ml, Compound of Formula (III) 8 μg/ml, Imipenem 16 μg/ml
# Description: (§2) The antibacterial effectiveness of various antibacterial agents in presence of a compound of Formula (III) was investigated and the results are detailed below. In a typical study, overnight cultures in Trypticase soya broth (TSB) were brought to log phase by 1 in 10 dilution in fresh cation adjusted Mueller Hinton Broth (MHB) and incubation for 2.5 hours at 35° C. in orbital shaker. Log phase cultures were diluted to desired inoculums in flasks with MHB, containing various drug concentrations. Flasks were incubated at 35° C. in orbital shaker with rotational speed of 125 rpm. Viability count was determined by 1 in 10 serial dilutions of samples in normal saline and surface spreading of 10 μl of dilutions in duplicate on Trypticase soya agar plates. Plates were incubated for 24 hours at 35° C. and colonies were enumerated to determine the colony forming units (CFU) per ml volume.
# [5] = system: Pseudomonas aeruginosa NCTC 13437 producing carbapenem hydrolyzing MBL (VIM 10) & Class A (VEB1); assay: Time kill study (viability count); type: cell-based; conditions: Cefepime 8 μg/ml, Compound of Formula (III) 8 μg/ml, Imipenem 16 μg/ml
# Description: as §2
# P. mirabilis G 186 [6] = assay: Minimum filamentation / spheroplasting concentration; conditions: Proteus mirabilis, G186
# Description: as §6, §7
# Pseudomonas PBP 1A = biological target: T2, Pseudomonas PBP 1A (Pseudomonas aeruginosa, UniProt Q07806); assay: PBP binding assay (Bocillin FL competition); conditions: Pseudomonas PBP 1A; read-out: IC50 (converted)
# T2 construct: endogenous in cells
# Description: (§3) The phrase “selective and high affinity PBP binder” refers to a PBP binder which binds to only one PBP with very high affinity. In general, the term “selective and high affinity PBP binder” also includes those binders where a substantial fraction of binder selectively binds to only one PBP with high affinity. […]. The term “IC50 value” of a compound refers to the concentration of the compound that reduces the binding of Bocillin-FL to PBPs by 50% as compared to when no compound was added to the reaction.
# (§4) A compound of Formula (III) was prepared using the procedure disclosed in PCT International Application No. PCT/IB2012/054290 and was evaluated for its PBP binding affinity profile. […] The reaction mixtures were then denatured with 20 μl each of SDS-denaturing solution at 100° C. for 3 min PBPs were separated through 10% SDS polyacrylamide gel electrophoresis (Bio-Rad Laboratories, Hercules, Calif.). The protein gels were rinsed in water immediately after electrophoresis. […] […].
# Pseudomonas PBP 5/6 = Pseudomonas PBP 5/6 (Pseudomonas aeruginosa, UniProt G3XD74); assay: PBP binding assay (Bocillin FL competition)
# Description: as §3, §4
# [7] = system: MDR Klebsiella pneumoniae B 88 producing NDM, SHV & TEM beta-lactamases; assay: Time kill study at MFC and MSC; type: cell-based; conditions: for Bacterial count: Cefepime 8 mcg/ml (MFC), Compound of Formula (III) 0.12 mcg/ml (MSC), Imepenem 8 mcg/ml
# Description: (§5) The synergistic killing effect of the combinations according to invention was studied by performing time kill studies. In a typical time kill study, the freshly grown cultures were diluted to the required cell density (initial starting inoculum) in Cation adjusted Muller Hinton broth medium (BD, USA). The antibacterial agents (either alone or in combination) at the required concentrations were added into the culture-containing medium. The samples were incubated under shaking condition (120 rpm) at 37° C. Enumeration of viable bacterial count was done every 2 hour by diluting in normal saline and plating on to the Tryptic Soya Agar plates (BD, USA). The plates were incubated for 24 hours to arrive at the viable bacterial count. The results are expressed in terms of Log CFU per ml. In general, the decrease of 1 Log CFU/ml, corresponds to 90% killing of bacteria. Similarly, 2 Log CFU/ml reductions indicates to 99% killing of bacteria and 3 Log CFU/ml reductions is equal to 99.9% killing of bacteria.
# [8] = system: MDR P. mirabilis G 186 producing NDM & TEM β-lactamases; assay: Time kill study at MFC and MSC; type: cell-based; conditions: for Bacterial count: Cefepime 8 mcg/ml (MFC), Compound of Formula (III) 0.25 mcg/ml (MSC), Imepenem 8 mcg/ml
# Description: as §5
# T2 sequence (Q07806 whole entry): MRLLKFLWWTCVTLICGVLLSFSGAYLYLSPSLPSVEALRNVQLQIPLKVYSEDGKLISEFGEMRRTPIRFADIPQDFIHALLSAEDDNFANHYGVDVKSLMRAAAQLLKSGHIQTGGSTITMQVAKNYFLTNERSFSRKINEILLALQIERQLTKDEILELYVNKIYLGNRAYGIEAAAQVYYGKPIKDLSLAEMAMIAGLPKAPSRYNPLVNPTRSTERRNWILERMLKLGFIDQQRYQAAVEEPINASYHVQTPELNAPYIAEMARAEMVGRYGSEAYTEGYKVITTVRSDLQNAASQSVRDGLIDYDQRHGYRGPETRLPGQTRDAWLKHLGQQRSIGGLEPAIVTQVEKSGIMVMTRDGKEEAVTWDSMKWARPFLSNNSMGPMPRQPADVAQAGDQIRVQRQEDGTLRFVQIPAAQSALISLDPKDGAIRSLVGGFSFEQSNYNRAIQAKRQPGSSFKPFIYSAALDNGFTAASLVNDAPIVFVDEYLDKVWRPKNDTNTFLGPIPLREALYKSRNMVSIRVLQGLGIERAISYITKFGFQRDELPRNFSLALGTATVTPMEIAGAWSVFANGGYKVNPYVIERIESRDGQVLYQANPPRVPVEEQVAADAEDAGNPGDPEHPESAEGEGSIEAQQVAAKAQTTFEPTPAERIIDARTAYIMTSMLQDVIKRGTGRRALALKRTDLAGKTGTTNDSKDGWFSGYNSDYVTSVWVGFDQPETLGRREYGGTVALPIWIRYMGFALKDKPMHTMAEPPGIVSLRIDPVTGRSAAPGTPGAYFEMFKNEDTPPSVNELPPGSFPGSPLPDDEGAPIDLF
# T1 sequence (G3XD46 whole entry): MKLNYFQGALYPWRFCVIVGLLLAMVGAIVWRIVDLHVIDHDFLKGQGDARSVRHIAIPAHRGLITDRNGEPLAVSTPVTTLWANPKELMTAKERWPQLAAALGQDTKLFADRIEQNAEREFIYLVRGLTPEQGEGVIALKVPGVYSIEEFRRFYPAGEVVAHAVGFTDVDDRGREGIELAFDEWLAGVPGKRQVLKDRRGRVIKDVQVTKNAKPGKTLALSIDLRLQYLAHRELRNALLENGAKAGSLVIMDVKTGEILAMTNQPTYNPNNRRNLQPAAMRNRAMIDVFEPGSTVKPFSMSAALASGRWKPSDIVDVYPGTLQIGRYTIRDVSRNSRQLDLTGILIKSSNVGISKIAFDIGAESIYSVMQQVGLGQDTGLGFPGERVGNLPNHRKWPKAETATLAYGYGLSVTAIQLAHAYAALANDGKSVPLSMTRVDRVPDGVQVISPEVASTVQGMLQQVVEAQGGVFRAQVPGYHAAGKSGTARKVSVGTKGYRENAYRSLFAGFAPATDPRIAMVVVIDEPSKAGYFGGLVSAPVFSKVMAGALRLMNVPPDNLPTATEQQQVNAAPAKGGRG
# Sequence of Pseudomonas PBP 5/6 (G3XD74 entry or part of it): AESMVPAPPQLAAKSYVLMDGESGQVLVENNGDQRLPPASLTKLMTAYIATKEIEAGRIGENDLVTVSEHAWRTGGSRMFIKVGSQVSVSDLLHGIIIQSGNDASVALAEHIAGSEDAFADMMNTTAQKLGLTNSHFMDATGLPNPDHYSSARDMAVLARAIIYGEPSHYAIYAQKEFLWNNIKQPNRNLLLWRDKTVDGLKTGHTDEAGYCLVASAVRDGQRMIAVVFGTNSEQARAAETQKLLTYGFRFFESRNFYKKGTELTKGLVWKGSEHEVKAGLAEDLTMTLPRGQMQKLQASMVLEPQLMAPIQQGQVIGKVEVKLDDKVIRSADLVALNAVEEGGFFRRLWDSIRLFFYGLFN
smiles,measurement,setting,value
CO/N=C(\C(=O)N[C@@H]1C(=O)N2C(C(=O)[O-])=C(C[N+]3(C)CCCC3)CS[C@H]12)c1csc(N)n1 [Cefepime],MIC,K. pneumoniae B88 [1],> 64 µg/mL
same,MIC,P. mirabilis G 186 [2],> 64 µg/mL
same,IC50,Pseudomonas PBP 3,312 nM
same,MFC,K. pneumoniae B88 [3],8 µg/mL
same,Bacterial count,[4]; 0 hour,6.3 log (CFU/ml)
same,Bacterial count,[4]; 2 hours,7.3 log (CFU/ml)
same,Bacterial count,[4]; 4 hours,7.5 log (CFU/ml)
same,Bacterial count,[4]; 6 hours,7.8 log (CFU/ml)
same,Bacterial count,[4]; 8 hours,8.0 log (CFU/ml)
same,Bacterial count,[5]; 0 hour,6.0 log (CFU/ml)
same,Bacterial count,[5]; 2 hours,6.49 log (CFU/ml)
same,Bacterial count,[5]; 4 hours,7.74 log (CFU/ml)
same,Bacterial count,[5]; 6 hours,8.02 log (CFU/ml)
same,Bacterial count,[5]; 12 hours,8.8 log (CFU/ml)
same,MFC,P. mirabilis G 186 [6],8 µg/mL
same,IC50,Pseudomonas PBP 1A,250 nM
same,IC50,Pseudomonas PBP 5/6,> 8.32 µM
same,Bacterial count,[7]; 0 hour,6.14 Log10 CFU/ml
same,Bacterial count,[7]; 2 hours,6.65 Log10 CFU/ml
same,Bacterial count,[7]; 4 hours,8.30 Log10 CFU/ml
same,Bacterial count,[7]; 6 hours,9.11 Log10 CFU/ml
same,Bacterial count,[7]; 8 hours,9.04 Log10 CFU/ml
same,Antibacterial activity (in words),"[7]; Klebsiella pneumoniae B 88, at MFC and MSC concentration, Table 13",did not exhibit antibacterial activity
same,Bacterial count,[8]; 0 hour,6.58 Log10 CFU/ml
same,Bacterial count,[8]; 2 hours,6.04 Log10 CFU/ml
same,Bacterial count,[8]; 4 hours,7.93 Log10 CFU/ml
same,Bacterial count,[8]; 6 hours,8.66 Log10 CFU/ml
same,Bacterial count,[8]; 8 hours,8.85 Log10 CFU/ml
same,Antibacterial activity (in words),"[8]; P. mirabilis G 186, at MFC and MSC concentration, Table 14",did not exhibit antibacterial activity
